Values quoted from earlier work, collected in patent publication US4658014A, “Synthetic peptides with calcitonin-like activity” (priority 1985, dated 1987).

Conditions: versus natural eel calcitonin

[Asu^1,7 ] eel calcitonin
activity relative to the naturally occuring hormone with the disulfide bond: comparable activity
